{"source": "patent US10881110B2", "about": "“Herbicidal compositions comprising isoxazolo[5,4-b]pyridines” (BASF SE, priority 2014, dated 2021)", "experiment_in_all_cases": "greenhouse post-emergence herbicidal test", "key": {"[1]": {"system": "STEME", "type": "in vivo, Stellaria media", "set-up": "key: scale 0 to 100", "method": "(§1) The culture containers used were plastic pots containing medium loamy sand with approximately 4.6% of humus and 69.9% sand as substrate. The seeds of the test plants were sown separately for each species.\n(§2) For the post-emergence treatment, the test plants were grown to a plant height of from 1 to 15 cm, depending on the plant habit, and only then treated with the active compounds which had been suspended or emulsified in water. To this end, the test plants were either sown directly, and grown in the same containers, or they were first grown separately as seedlings and transplanted into the test containers a few days prior to treatment.\n(§3) Depending on the species, the plants were kept at 10-25° C. and 20-35° C., respectively.\n(§4) The test period extended over 1 to 3 weeks. During this time, the plants were tended and their response to the individual treatments was evaluated 20 days after treatment except mentioned otherwise.\n(§5) Evaluation was carried out using a scale from 0 to 100. 100 means no emergence of the plants, or complete destruction of at least the above-ground parts, and 0 means no damage or normal course of growth.\n(§6) The respective stated components A and B, and, if appropriate, C, were formulated as a 10% by weight strength emulsion concentrate and, with addition of the amount of solvent system, introduced into the spray liquor used for applying the active compound. In the examples, the solvent used was water.\n(§7) In the examples below, using the method of S. R. Colby (1967) “Calculating synergistic and antagonistic responses of herbicide combinations”, Weeds 15, p. 22 ff., the value E, which is expected if the activity of the individual active compounds is only additive, was calculated. E=X+Y−(X·Y/100)"}, "[2]": {"system": "GERDI", "type": "in vivo, Geranium dissectum", "set-up": "key to herbicidal activity against GERDI found: rating on a scale from 0 to 100", "settings": "post emergence", "method_in_brief": "(§8)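 Post-emergence spray on 1–15 cm plants in medium loamy sand pots; actives as 10% w/w EC diluted in water. 10-25° C / 20-35° C per species. Visual score 20 d after treatment, 0 = no damage, 100 = full kill; Colby expected value E=X+Y−(X·Y/100).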"}, "[3]": {"system": "GALAP", "type": "in vivo, Galium aparine", "settings": "Galium aparine, post-emergence, 480 h, post emergence; 7.5 g/ha a.i.; read-out: herbicidal activity against GALAP found", "method_in_brief": "(§9)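 Post-emergence greenhouse test: plants in loamy sand, sprayed at 1–15 cm height with aqueous spray liquor from 10% emulsion concentrates, kept at 10-25 °C or 20-35 °C by species. Damage scored 0–100 (100 = complete destruction), usually 20 days after treatment. Expected additive effect E from Colby: E=X+Y−(X·Y/100).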"}, "[4]": {"system": "ALOMY", "type": "in vivo, Alopecurus myosuroides", "set-up": "key to herbicidal activity against ALOMY found: rating on a scale from 0 to 100", "settings": "post emergence", "method_in_brief": "as §8"}, "[5]": {"system": "MATCH", "type": "in vivo, Matricaria recutita", "settings": "Matricaria chamomilla, post-emergence, 480 h, post emergence; 15 g/ha a.i.; read-out: herbicidal activity against MATCH found", "method_in_brief": "as §8"}, "[6]": {"system": "ABUTH", "type": "in vivo, Abutilon theophrast", "set-up": "key to herbicidal activity against ABUTH found: rating on a scale from 0 to 100", "settings": "post emergence", "method_in_brief": "as §8"}, "[7]": {"system": "IPOHE", "type": "in vivo, Ipomoea hederacea", "set-up": "key to herbicidal activity against IPOHE found: rating on a scale from 0 to 100", "settings": "post emergence", "method_in_brief": "as §9"}, "[8]": {"system": "PAPRH", "type": "in vivo, Papaver rhoeas", "set-up": "key: rating on a scale from 0 to 100", "settings": "application rate a.i.: I.1 62.5 g/ha, B.40 (imazethapyr) 7.5 g/ha, alone or as mixture (composition 1.40)", "method": "as §1, §2, §3, §4, §5, §6, §7"}, "[9]": {"system": "ECHCG", "type": "in vivo, Echinochloa crus-galli", "set-up": "key to herbicidal activity against ECHCG found / herbicidal activity against ECHCH found: scale 0 to 100", "settings": "post emergence; application rate a.i.: I.1 31.25 g/ha, B.40 (imazethapyr) 7.5 g/ha, alone or as mixture (composition 1.40)", "method": "as §1, §2, §3, §4, §5, §6, §7"}, "[10]": {"system": "POLCO", "type": "in vivo, Polygonum convolvulus", "set-up": "key to herbicidal activity against POLCO found: rating on a scale from 0 to 100", "settings": "post emergence", "method_in_brief": "as §9"}, "[11]": {"system": "ERICA", "type": "in vivo, Conyza canadensis", "set-up": "key to herbicidal activity against ERICA found: rating on a scale from 0 to 100", "settings": "post emergence; I.1 62.5 g/ha, B.89 25 g/ha a.i.", "method_in_brief": "as §8"}, "[12]": {"system": "VIOAR", "type": "in vivo, Viola arvensis", "set-up": "key to herbicidal activity against VIOAR found / herbicidal activity against VIOLA found: rating on a scale from 0 to 100", "settings": "post emergence; I.1 62.5 g/ha, B.89 12.5 g/ha a.i.", "method_in_brief": "as §9"}, "[13]": {"settings": "application rate a.i.: I.1 31.25 g/ha, B.40 (imazethapyr) 7.5 g/ha, alone or as mixture (composition 1.40)"}, "[14]": {"settings": "application rate a.i.: I.1 62.5 g/ha, B.40 (imazethapyr) 7.5 g/ha, alone or as mixture (composition 1.40)"}, "[15]": {"settings": "I.1 15.62 g/ha, B.89 25 g/ha a.i."}, "[16]": {"settings": "I.1 31.25 g/ha, B.89 25 g/ha a.i."}, "[17]": {"settings": "I.1 62.5 g/ha, B.89 12.5 g/ha a.i."}, "[18]": {"settings": "I.1 62.5 g/ha, B.89 25 g/ha a.i."}}, "data": [{"smiles": "C#CCOC(=O)[C@@H](C)Oc1ccc(Oc2ncc(Cl)cc2F)cc1", "note": "[B.2, clodinafop-propargyl]", "values": [{"measurement": "herbicidal activity against STEME found", "setting": "[1]; 7.5 g/ha a.i.", "value": 0}, {"measurement": "pest or weed control at 7.5 g/ha", "setting": "[2]; Geranium dissectum, post-emergence, 480 h, 7.5 g/ha a.i., read-out: herbicidal activity against GERDI found", "value": 0, "unit": "%"}, {"measurement": "pest or weed control at 7.5 g/ha", "setting": "[3]", "value": 0, "unit": "%"}, {"measurement": "pest or weed control at 15 g/ha", "setting": "[4]; Alopecurus myosuroides, post-emergence, 480 h, 15 g/ha a.i., read-out: herbicidal activity against ALOMY found", "value": 85, "unit": "%"}, {"measurement": "pest or weed control at 15 g/ha", "setting": "[5]", "value": 0, "unit": "%"}, {"measurement": "pest or weed control at 15 g/ha", "setting": "[6]; Abutilon theophrasti, post-emergence, 480 h, 15 g/ha a.i., read-out: herbicidal activity against ABUTH found", "value": 15, "unit": "%"}, {"measurement": "pest or weed control at 7.5 g/ha", "setting": "[7]; Ipomoea hederacea, post-emergence, 480 h, 7.5 g/ha a.i., read-out: herbicidal activity against IPOHE found", "value": 10, "unit": "%"}, {"measurement": "pest or weed control at 15 g/ha", "setting": "[7]; Ipomoea hederacea, post-emergence, 480 h, 15 g/ha a.i., read-out: herbicidal activity against IPOHE found", "value": 40, "unit": "%"}]}, {"smiles": "CCc1cnc(C2=NC(C)(C(C)C)C(=O)N2)c(C(=O)O)c1", "note": "(centres unmarked) [B.40, imazethapyr]", "values": [{"measurement": "herbicidal activity against GERDI found", "setting": "[2]; [13]", "value": 95}, {"measurement": "herbicidal activity against GERDI found", "setting": "[2]; [14]", "value": 90}, {"measurement": "herbicidal activity against PAPRH found", "setting": "[8]", "value": 45}, {"measurement": "herbicidal activity against ECHCG found", "setting": "[9]", "value": 85}, {"measurement": "herbicidal activity against POLCO found", "setting": "[10]; [13]", "value": 80}, {"measurement": "herbicidal activity against IPOHE found", "setting": "[7]; [14]", "value": 80}]}, {"smiles": "CS(=O)(=O)NC(=O)c1cc(Oc2ccc(C(F)(F)F)cc2Cl)ccc1[N+](=O)[O-]", "note": "[B.89, fomesafen]", "values": [{"measurement": "herbicidal activity against STEME found", "setting": "[1]; [15]", "value": 0}, {"measurement": "herbicidal activity against STEME found", "setting": "[1]; I.1 31.25 g/ha, B.89 12.5 g/ha a.i.", "value": 0}, {"measurement": "herbicidal activity against STEME found", "setting": "[1]; [16]", "value": 0}, {"measurement": "herbicidal activity against GERDI found", "setting": "[2]; [15]", "value": 25}, {"measurement": "herbicidal activity against GERDI found", "setting": "[2]; [17]", "value": 25}, {"measurement": "herbicidal activity against GERDI found", "setting": "[2]; [18]", "value": 25}, {"measurement": "herbicidal activity against ERICA found", "setting": "[11]", "value": 20}, {"measurement": "herbicidal activity against ALOMY found", "setting": "[4]; [17]", "value": 25}, {"measurement": "herbicidal activity against POLCO found", "setting": "[10]; I.1 15.62 g/ha, B.89 12.5 g/ha a.i.", "value": 95}, {"measurement": "herbicidal activity against ABUTH found", "setting": "[6]; [16]", "value": 90}, {"measurement": "herbicidal activity against IPOHE found", "setting": "[7]; [15]", "value": 85}, {"measurement": "herbicidal activity against IPOHE found", "setting": "[7]; [16]", "value": 85}, {"measurement": "herbicidal activity against IPOHE found", "setting": "[7]; [17]", "value": 85}, {"measurement": "herbicidal activity against IPOHE found", "setting": "[7]; [18]", "value": 85}, {"measurement": "herbicidal activity against VIOAR found", "setting": "[12]", "value": 55}]}]}
